The values that follow come from PMC4701715 (Current Therapeutic Research, Clinical and Experimental, 2015).

The structures appear in SMILES notation.

Common to all, as to type: cell-based
Assay [1] has as its target T1, rat GLP-1r (Rattus norvegicus, UniProt P32301).
T1 construct: expressed in transfected cells; host or cells: Chinese hamster lung cells
T1 sequence (P32301 22-463): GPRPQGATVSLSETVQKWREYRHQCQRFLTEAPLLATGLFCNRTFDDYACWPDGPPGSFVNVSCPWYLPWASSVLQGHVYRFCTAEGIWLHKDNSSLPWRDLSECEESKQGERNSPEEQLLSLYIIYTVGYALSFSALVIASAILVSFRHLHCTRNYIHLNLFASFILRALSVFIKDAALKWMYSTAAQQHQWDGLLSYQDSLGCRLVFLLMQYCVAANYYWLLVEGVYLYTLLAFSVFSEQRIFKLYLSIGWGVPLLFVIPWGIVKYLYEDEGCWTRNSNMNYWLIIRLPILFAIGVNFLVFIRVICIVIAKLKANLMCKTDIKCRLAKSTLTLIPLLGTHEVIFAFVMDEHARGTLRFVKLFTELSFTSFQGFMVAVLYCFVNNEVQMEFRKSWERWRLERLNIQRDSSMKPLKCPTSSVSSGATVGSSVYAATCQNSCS
The assay can be described thus: cAMP accumulation in Chinese hamster lung cells overexpressing the rat GLP-1r. The settings on record: Chinese hamster lung cells overexpressing rGLP-1r; 30 min incubation, room temperature, 1 mM IBMX; cAMP ELISA; mean, n = 3. Here is the method: (§1) All cell culture reagents were obtained from Invitrogen (Life Technologies Ltd, Paisley, United Kingdom) unless otherwise stated. Chinese hamster ovary-K1 cells overexpressing the rat GCGr were routinely maintained in Dulbecco’s modified eagle medium (DMEM) with 25 mM glucose and 1 mM sodium pyruvate supplemented with 10% fetal bovine serum, 25 mM hydroxyethyl piperazineethanesulfonic acid, 1% antibiotic (100 U/mL penicillin and 100 µg/mL streptomycin), and 1 × nonessential amino acids. Chinese hamster lung cells overexpressing the rat GLP-1r were maintained in the same DMEM but without additional hydroxyethyl piperazineethanesulfonic acid or nonessential amino acids.
(§2) Levels of cAMP accumulation was measured in Chinese hamster ovary-K1 cells overexpressing the rat GCGr (cDNA from Origene, Cambridge Bioscience, Cambridge, United Kingdom) or Chinese hamster lung cells overexpressing the rat GLP-1r (a gift from Bernard Thorens, University of Lausanne, Switzerland). […]
(§3) Data were plotted and in vivo efficacy values calculated.
(§4) cAMP in vitro efficacy and binding in vitro affinity were calculated using nonlinear regression with Prism version 5 software (GraphPad Software Inc, San Diego, California). Differences in cumulative food intake and body weight were analyzed using 1-way ANOVA and post hoc tests with Dunnett or Bonferroni correction (Prism version 5 software). […]

The target of assay [2] is T2, rat GCGr (Rattus norvegicus, UniProt P30082).
T2 construct: host or cells: Chinese hamster ovary-K1 cells
T2 sequence (P30082 27-485): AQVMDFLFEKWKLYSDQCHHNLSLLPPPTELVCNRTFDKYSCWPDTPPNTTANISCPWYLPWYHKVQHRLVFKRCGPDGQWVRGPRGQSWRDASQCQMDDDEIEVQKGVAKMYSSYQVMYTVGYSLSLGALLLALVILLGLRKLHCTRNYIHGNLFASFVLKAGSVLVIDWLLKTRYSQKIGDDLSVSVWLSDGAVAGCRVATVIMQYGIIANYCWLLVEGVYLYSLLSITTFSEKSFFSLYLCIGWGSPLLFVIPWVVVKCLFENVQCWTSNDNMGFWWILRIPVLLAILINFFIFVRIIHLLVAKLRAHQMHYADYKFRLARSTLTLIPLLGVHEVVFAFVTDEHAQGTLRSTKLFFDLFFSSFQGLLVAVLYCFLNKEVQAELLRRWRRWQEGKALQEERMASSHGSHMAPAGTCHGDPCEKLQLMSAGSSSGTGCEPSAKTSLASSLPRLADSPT
Briefly: Rat GCGr antagonism study: cAMP in the presence of 0.1 nM glucagon. The settings on record: n = 3. As to the method:
Postincubation, medium was removed and cells lysed with 120 µL/well of 0.1 M hydrochloride + 0.5% nonionic, octylphenol ethoxylate surfactant. cAMP levels were measured using an indirect ELISA according to the manufacturer’s instructions (ADI-900-066, Enzo Life Sciences, United Kingdom), optical density was read at 405 nm on a Biotek ELx808 (Wolf Laboratories, York, United Kingdom). Data were plotted and […] efficacy values calculated.

Assay [3] addresses T2, rat GCGr. The assay can be described thus: cAMP accumulation in CHO-K1 cells overexpressing the rat GCGr. The settings on record: CHO cells overexpressing rGCGr; 30 min incubation, room temperature, 1 mM IBMX; cAMP ELISA; mean, n = 3. Here is the method: as §1, §2, §3, §4

On to `CC[C@H](C)[C@H](NC(=O)[C@H](CC(N)=O)NC(=O)[C@H](CC(N)=O)NC(=O)[C@H](CCCNC(=N)N)NC(=O)[C@H](CC(N)=O)NC(=O)[C@H](CCCNC(=N)N)NC(=O)[C@H](CCCCN)NC(=O)[C@@H](NC(=O)[C@H](CC(N)=O)NC(=O)[C@H](CCSC)NC(=O)[C@H](CC(C)C)NC(=O)[C@H](Cc1c[nH]c2ccccc12)NC(=O)[C@H](CCC(N)=O)NC(=O)[C@@H](NC(=O)[C@H](Cc1ccccc1)NC(=O)[C@H](CC(=O)O)NC(=O)[C@H](CCC(N)=O)NC(=O)[C@H](C)NC(=O)[C@H](CCCNC(=N)N)NC(=O)[C@H](CCCNC(=N)N)NC(=O)[C@H](CO)NC(=O)[C@H](CC(=O)O)NC(=O)[C@H](CC(C)C)NC(=O)[C@H](Cc1ccc(O)cc1)NC(=O)[C@H](CCCCN)NC(=O)[C@H](CO)NC(=O)[C@H](Cc1ccc(O)cc1)NC(=O)[C@H](CC(=O)O)NC(=O)[C@H](CO)NC(=O)[C@@H](NC(=O)[C@H](Cc1ccccc1)NC(=O)[C@@H](NC(=O)CNC(=O)[C@H](CCC(=O)O)NC(=O)[C@H](CO)NC(=O)[C@@H](N)Cc1c[nH]cn1)[C@@H](C)O)[C@@H](C)O)C(C)C)[C@@H](C)O)C(=O)N[C@@H](C)C(=O)O` [OXME3], for which the EC50 came to 8.1 nM in assay [1] and 160 nM in assay [3]. The “increase of cAMP levels compared with glucagon stimulation alone” value in assay [2] (30 nM peptide with 0.1 nM glucagon) was 9%. The “decrease of glucagon-mediated cAMP accumulation, mean” value in assay [2] (all concentrations tested except 30 nM, with 0.1 nM glucagon, relative to glucagon alone) was found to be 40.3%.
